This assay concerns the target T1, Neutrophil elastase (Homo sapiens, UniProt P08246).
T1 sequence (P08246 whole entry): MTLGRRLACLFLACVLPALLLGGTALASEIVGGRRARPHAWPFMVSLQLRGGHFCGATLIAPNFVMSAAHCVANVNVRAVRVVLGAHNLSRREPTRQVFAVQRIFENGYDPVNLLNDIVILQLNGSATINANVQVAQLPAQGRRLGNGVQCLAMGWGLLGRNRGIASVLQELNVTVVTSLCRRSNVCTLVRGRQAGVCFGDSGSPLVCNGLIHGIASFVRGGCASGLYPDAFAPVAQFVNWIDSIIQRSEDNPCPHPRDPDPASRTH
Description: Human Neutrophil Elastase Assay: The following buffers were used: Compound buffer: 100 mM Tris, 500 mM NaCl, adjusted to pH 7.5; Assay buffer: 100 mM Tris, 500 mM NaCl, adjusted to pH 7.5, containing 0.01% BSA.Assay conditions: Test compounds were prediluted in DMSO and subsequently in compound buffer (5% DMSO final). 5 μL of these compound dilutions were mixed with 10 μl Neutrophil elastase ….

The values that follow come from ChEMBL document CHEMBL3886982, “Substituted bicyclic dihydropyrimidinones and their use as inhibitors of neutrophil elastase activity” (2016).

Description: Human Neutrophil Elastase Assay: The following buffers were used: Compound buffer: 100 mM Tris, 500 mM NaCl, adjusted to pH 7.5; Assay buffer: 100 mM Tris, 500 mM NaCl, adjusted to pH 7.5, containing 0.01% BSA.Assay conditions: Test compounds were prediluted in DMSO and subsequently in compound buffer (5% DMSO final). […] After inactivation of the enzyme, fluorescence intensities were measured at 380 nm excitation and 460 nm emission wavelengths.

In general, IC50 refers to the midpoint of a concentration-inhibition curve. Read a high IC50 as lower potency. The compound `CN1C(=O)N(c2cccc(C(F)(F)F)c2)C2=C(C(=O)CC2)C1c1ccc(C#N)cc1-c1ccnn1C` (stereo unspecified) gave an IC50 of 7.3 nM.
